# Data: US7138486B2, “Insulinotropic hormone derivatives and uses thereof” (The General Hospital Corporation, priority 1986, dated 2006)
# Where no end group is shown, it is not given here.
# Experiments:
# rat pancreas = experiment: Pancreatic perfusion assay of insulinotropic activity (effluent insulin); type: in vivo; details: for Insulinotropic activity: 10^−11 M, five minute perfusions, FIG. 4; for Mean perfusate insulin concentration: 10^−9 M for 5 minutes; for Insulinotropic activity (perfusate insulin): Table 6
# Experimental: The in situ isolated perfused rat pancreas preparation was a modification of the method of Penhos, J. C., el al. (Diabetes 18:733–738 (1969)). In accordance with such a method, fasted rats (preferably male Charles River strain albino rats), weighing 350–600 g, are anesthetized with an intraperitoneal injection of Amytal Sodium (Eli Lilly and Co., 160 ng/kg). Renal, adrenal, gastric, and lower colonic blood vessels are ligated. The entire intestine is resected except for about four cm of duodenum and the descending colon and rectum. […] The perfusate is preferably a modified Krebs-Ringer bicarbonate buffer with 4% dextran T70 and 0.2% bovine serum albumin (fraction V), and is preferably bubbled with 95% O2 and 5% CO2. A nonpulsatile flow, four-channel roller-bearing pump (Buchler polystatic, Buchler Instruments Division, Nuclear-Chicago Corp.) is preferably used, and a switch from one perfusate source to another is preferably accomplished by switching a three-way stopcock.
# Isolated rat pancreas was prepared according to the method of Weir, G. C., et al., (J. Clin. Invest. 54:1403–1412 (1974)), and Penkos, J. C., et al. (Diabetes 18:733–738 (1969)). The perfusate contained bicarbonate buffer (pH 7.4) and 120 mg/dl glucose, 4% dextran T-70, and 0.2% bovine serum albumin, and was equilibrated with 95% oxygen and 5% carbon dioxide. The first 20 minutes of each perfusion was an equilibrium period. After this initial period, aliquots of perfusate were removed every 2–4 min for additional 20 min, thus allowing the system to equilibrate for a total of 40 min. The perfusion, including any added insulinotropic peptide, was for 6 min and samples were collected at 1-min intervals. When more than one perfusion was to be performed, the peptide perfusions were followed by equilibration periods of 20 min, during which four samples 5 min apart were collected. […] Again, samples 1 min apart were collected. The entire perfusion time was between 70 and 85 min.
# In each aliquot of perfusate obtained, insulin was determined by radioimmunoassay. […] At one minute intervals, pancreas effluent insulin levels in picograms/ml were determined by radioimmunoassay (as described above).
# RIN 1046-38 cells [1] = experiment: cAMP formation in insulinoma cell line; type: cell-based, rat; details: for Effect on cAMP levels: 0.5 μM; for Effects on the formation of cAMP: at 5 nM and 50 pM
# Experimental: Cells were grown as described in Example 1, in […] culture dishes. Varying amounts of glucagon-like peptides were added to culture wells in triplicate. […] Twenty microliters from each culture well was assayed.
# Insulinotropic activity was monitored as described by Mojsov, S., et al., (J. Clin. Invest. 79:616–619 (1987)) and Drucker, D. J., et al., (Proc. Natl Acad. Sci. 84:3434–3438 (1987)), both of which references are incorporated by reference herein. […]
# [2] = tested on: rat insulin I gene promoter in βTC-1 cells; experiment: CAT activity in cells transiently transfected with −410 Ins-CAT plasmid; type: cell-based, mouse; details: 24 hours
# Experimental: Cells of two 80–90% confluent 150 mm culture plates were trypsinized and transfected in solution in one tube with 15 μg of indicator plasmid using the DEAE-dextran method. The plasmid contained 410 bp of the rat insulin I gene promoter fused to the transcriptional reporter gene encoding the bacterial enzyme chloramphenicol-acetyltransferase (CAT). […] Subsequently cells were plated into 18 wells of six well plates. […] Thereby, differences in transfection deficiencies reflected in CAT activities were normalized against protein concentrations as well as the respective control experiments. After transfection cells were incubated in RPMI 1640 supplemented with 0.1% human serum albumin and 0.1% bacitracin. […] After extraction with ethylacetate (1 ml) acetylated and non-acetylated ^14C-chloramphenicol were separated by thin-layer chromatography (chloroform:methanol 9:1), identified by autoradiography and the respective spots were scraped from the plates and radioactivity was counted in a scintillation counter.
# βTC-1 cells [3] = experiment: Cellular insulin content by radioimmunoassay; type: cell-based, mouse; details: 24 hours
# Experimental: Two days before the experiment commenced, cells were plated into 35 mm plates. Media were changed to RPMI 1640 supplemented with 0.1% human serum albumin and 0.1% bacitracin. […] After incubation for 24 hours under these conditions, cells were washed three times with PBS and harvested in 1.5 ml buffer containing 150 mM NaCl, 1 mM EDTA and 40 mM Tris/Cl pH 7.4 and resuspended in 200 μl PBS. Fifty μl of this cell suspension were resuspended in 1 ml 1 M acetic acid and extracted for 16 hours at 4° C. Aliquots (2 and 20 μl) were lyophilized and reconstituted in insulin-RIA buffer. The cell number of each plate was controlled by determination of total protein in the initial cell lysate. […] Insulin was measured with a radioimmunoassay system using an antiserum raised in rabbits against pork insulin and pork insulin as the standard. […] Data are presented as fold-increase of insulin content per well above the control experiments (no treatment).
# βTC-1 cells [4] = experiment: Proinsulin biosynthesis ([3H]leucine labelling); type: cell-based, mouse; details: 6 hours labeling
# Experimental: βTC-1 cells (Efrat et al., Proc. Natl. Acad. Sci. (USA) 85:9037–9041 (1988)) were grown in a humidified atmosphere at 37° C. in RPMI 1640 medium supplemented with 10% (vol/vol) fetal bovine serum, 5% (vol/vol) horse serum, 100 U/ml penicillin and 100 μg/ml streptomycin. Media were changed after three days and cells were split 1:3 after six days.
# βTC-1 cells were plated into 35 mm plates and grown for two days to reach 80–90% confluency. During a 6 hour labeling period cells were incubated in 1 ml RPMI 1640 supplemented with 0.1% human serum albumin, 0.1% bacitracin and 50 μCi[^3H]leucine. Forskolin, IBMX, 8-Bromo-cAMP and GLP-1(7-37) were added from stock solutions as described (see “cell transfection”). Cells were harvested in PBS and lysed by three freeze-thaw cycles. Immunoreactive proinsulin was precipitated with an antiserum raised in rabbits against pork insulin that was coupled to a 10% suspension of bacterial lysates (Saureus) containing protein A. Radioactivity contained in the resulting pellets was counted using a lliquid scintillation counter. Incorporation of [^3H]leucine into total protein was measured in trichloroacetic acid precipitates of the cells. None of the agents tested had any effects on [^3H]leucine incorporation into TCA precipitable proteins. Data are expressed as fold-induction of proinsulin biosynthesis above those in the control experiments (no treatment).
# RIN 1046-38 cells [5] = experiment: Levels of insulin, actin and angiotensinogen mRNAs by Northern blot densitometry; type: cell-based, rat
# Experimental: Rat insulinoma cells of cell line RIN-38 were derived from a continuous islet cell line, RIN-r, which was established from a transplantable rat islet cell tumor (Gazdar, A. F., et al., Proc. Natl. Acad. Sci., USA 77:3519–3523 (1980)). The cells were maintained in DMEM (Gibco) at a glucose concentration of 4,500 mg/L and supplemented with 10% heat-inactivated fetal bovine serum (Gibco), 100 U/ml of penicillin and 100 μg/ml of streptomycin. Incubations were carried out at 37° C. in 95% air:5% CO2. Cells grown in the above manner were washed and resuspended in DMEM (Gibco) containing 0.1% bovine serum albumin and 25 mM glucose. […] Incubations were for six hours.
# Messenger RNAs specific for insulin, actin, or angiotensinogen were identified by Northern hybridization as follows: cellular RNA was extracted from solid tumors and cells by homogenization in guanidine thiocyanate and sedimentation through a cesium chloride cushion. Poly A^+ RNA was isolated by oligo dT cellulose chromatography (Aviv, H., et al., Proc. Natl. Acad. Sci., USA 69:1408–1412 (1972)). Twenty micrograms of total RNA from each sample were fractionated by size on a 1.4% agarose gel after denaturation in glyoxal, followed by electrotransfer to a nylon membrane (Nytran; Schleicher and Schuell). Blotted membranes were baked for two hours at 80° C. under vacuum, prehybridized in 1M NaCl/1% SDS/10% Dextran sulfate at 50° C. overnight and hybridized at the same temperature for 24 h after addition of the labeled probes (3–5×10^5 cpm/ml); they were then washed at 55° C. twice in 1×SCC (0.15M NaCl/0.015 M Na citrate)/1% SDS), and exposed to X-ray film for varying times at −70° C. with an intensifying screen. The relative amounts of the specific mRNA were determined by microdensitometry.
# [6] = target: receptor involved in the recognition of glucagon; experiment: cell-based or functional assay
# cellular receptors = experiment: cell-based or functional assay
molecule,measurement,setting,value
des-7 histidine GLP-1(7-37) (AEGTFTSDVSSYLEGQAAKEFIAWLVKGRG) [GLP-1 (8-37)],Effect on insulin secretion,"rat pancreas; perfusate glucose 6.6 mM, 10^−7 M",weak insulinotropic activity
same,Effect on insulin secretion,"rat pancreas; perfusate glucose 6.6 mM, 10^−11, 10^−9, or 10^−8 M",no detectable effect
same,Effect on insulin secretion,"rat pancreas; perfusate glucose 16.7 mM, 10^−9 M",no effect
same,cAMP formation,"RIN 1046-38 cells [1]; Table 8, 10^−5 M",77 ± 11 f-mole/5 ul of cell extract/15 min exposure to peptide
same,cAMP formation,"RIN 1046-38 cells [1]; Table 8, 10^−6 M",31 ± 3 f-mole/5 ul of cell extract/15 min exposure to peptide
same,cAMP formation,"RIN 1046-38 cells [1]; Table 8, 10^−7 M",24 ± 2 f-mole/5 ul of cell extract/15 min exposure to peptide
same,cAMP formation,"RIN 1046-38 cells [1]; Table 8, 10^−8 M, no peptide 27 ± 2, mean ± S.E.M.",28 ± 0.8 f-mole/5 ul of cell extract/15 min exposure to peptide
same,Insulinotropic activity compared with glucagon,RIN 1046-38 cells [1]; cAMP formation,comparable to that of glucagon
"C=C[C@@]1(C)CC(=O)[C@]2(O)[C@@]3(C)[C@@H](O)CCC(C)(C)[C@@H]3[C@H](O)[C@H](OC(C)=O)[C@@]2(C)O1 [Forskolin, forskolin]",Increase of CAT activity,[2]; 10 μM,3.3±0.57 fold
same,Increase of total cellular insulin content,βTC-1 cells [3]; 10 μM,1.49±0.18 fold
same,Increase of proinsulin biosynthesis,βTC-1 cells [4]; 10 μM,1.53±0.06 fold
"His-Ala-Glu-Gly-Thr-Phe-Thr-Ser-Asp-Val-Ser-Ser-Tyr-Leu-Glu-Gly-Gln-Ala-Ala-Lys-Glu-Phe-Ile-Ala-Trp-Leu-Val-Lys-Gly-Arg (HAEGTFTSDVSSYLEGQAAKEFIAWLVKGR; printed: His-Ala-Glu-Gly-Thr-Phe-Thr-Ser-Asp-Val-Ser-Ser-Tyr-Leu-Glu-Gly-Gln-Ala-Ala-Lys-Glu-Phe-Ile-Ala-Trp-Leu-Val-Lys-Gly-Arg) [GLP-1(7-36), GLP-1 polypeptide having all amino acids from number 7 through number 36]",Insulinotropic activity compared with GLP-1(7-37),rat pancreas; 10^−11M,equiavlent to GLP-1(7-37)
"GLP-1-(1-36)-NH2: GLP-1(1-36 des-gly-arg amide); Peninsula Laboratories (HDEFERHAEGTFTSDVSSYLEGQAAKEFIAWLVKGR-NH2; UniProt P01275 92-127, looked up, fragment)",Actin mRNA level,"RIN 1046-38 cells [5]; Experiment 1, peptide 5 × 10^−7 M, control 0.68 ± 0.03",0.87 ± 0.19 Arbitrary densitometric units
same,Insulin mRNA level,"RIN 1046-38 cells [5]; Experiment 1, peptide 5 × 10^−7 M, control 1.28 ± 0.18, mean ± SEM",2.78 ± 0.51^4 Arbitrary densitometric units
same,Angiotensinogen mRNA level,"RIN 1046-38 cells [5]; Experiment 1, peptide 5 × 10^−7 M, control 2.67 ± 0.31",2.56 ± 0.22 Arbitrary densitometric units
same,Effect on cAMP levels,RIN 1046-38 cells [1],increased cAMP levels
same,cAMP,"RIN 1046-38 cells [1]; Exp. 4, 5 × 10^−7 M, control 41.3 ± 7.1",70.2 ± 2.8 (b) fmol
same,Effects on the formation of cAMP,RIN 1046-38 cells [1],negligible
"GLP-2: glucagon-like peptide 2, 34 amino acid residues long",Effects on insulin mRNA levels,RIN 1046-38 cells [5],no effects
same,Stimulation of cAMP levels,RIN 1046-38 cells [1]; even at 10^−11 M,neither GLP-1(1-37) nor GLP-2 (GLP-2) exhibited such activity
"GLP-1(7-34): derivative of GLP-1(1-37), amino acids 7-34 (HAEGTFTSDVSSYLEGQAAKEFIAWLVK; Glucagon-like peptide 1; UniProt P01275 98-125, looked up, fragment)",Insulinotropic activity,rat pancreas,detectable insulinotropic activity
CC(C)Cn1c(=O)n(C)c(=O)c2[nH]cnc21 [IBMX],Increase of CAT activity,[2]; 0.5 mM,2.6±0.16 fold
same,Increase of total cellular insulin content,βTC-1 cells [3]; 0.5 mM,1.30±0.12 fold
same,Increase of proinsulin biosynthesis,βTC-1 cells [4]; 0.5 mM,1.53±0.06 fold
"GLP-1(7-35): derivative of GLP-1(1-37), amino acids 7-35 (HAEGTFTSDVSSYLEGQAAKEFIAWLVKG; Glucagon-like peptide 1; UniProt P01275 98-126, looked up, fragment)",Insulinotropic activity,rat pancreas,detectable insulinotropic activity
glucagon,Mean perfusate insulin concentration,"rat pancreas; glucose 6.6 mM, absence of GLP-1 (8-37)",4.98 ± 0.96 ng/mL
same,Mean perfusate insulin concentration,"rat pancreas; glucose 6.6 mM, presence of 10^−8 M GLP-1 (8-37), N=4",5.26 ± 0.89 ng/mL
same,Peak insulin release,"rat pancreas; 10^−9 M, glucose 6.6 mM",4.5 ± 0.5 ng/mL
same,Insulin release,rat pancreas; 10^−11M,no release
same,Concentration at which an insulinotropic effect is still mediated (as low as),rat pancreas; pancreatic B cell secretagogue,10^−9 M
same,Effects on insulin mRNA levels,RIN 1046-38 cells [5],no effects
same,Effect on cAMP levels,RIN 1046-38 cells [1],increased cAMP levels
same,cAMP,"RIN 1046-38 cells [1]; Exp. 1, 5 × 10^−9 M",20.1 ± 2.5 (a) fmol
same,cAMP,"RIN 1046-38 cells [1]; Exp. 1, 5 × 10^−10 M",16.5 ± 2.0 (NS) fmol
same,cAMP,"RIN 1046-38 cells [1]; Exp. 1, 5 × 10^−11 M",13.2 ± 1.0 (NS) fmol
same,cAMP,"RIN 1046-38 cells [1]; Exp. 1, 5 × 10^−12 M, per 1/50th of cell extract per plate, control 15.4 ± 0.7, mean ± SEM",18.7 ± 2.2 (NS) fmol
same,cAMP,"RIN 1046-38 cells [1]; Exp. 2, 5 × 10^−7 M",93.1 ± 2.9 (c) fmol
same,cAMP,"RIN 1046-38 cells [1]; Exp. 2, 5 × 10^−8 M, control 43.6 ± 4.1",44.8 ± 1.6 (NS) fmol
same,cAMP formation,"RIN 1046-38 cells [1]; Table 8, 10^−6 M",92 ± 9 f-mole/5 ul of cell extract/15 min exposure to peptide
same,Effects on the formation of cAMP,RIN 1046-38 cells [1],negligible
glucagon (from UniProt P01275 53-81) (peptide),"mean perfusate insulin concentration, perfused rat pancreas, glucagon alone at 10^-9 M",[6],4.98 ng/mL
"GLP-1(7-36)-NH2: GLP-1(7-36) with the C-terminal residue, arginine, in amidated form as arginineamide",Insulinotropic activity (perfusate insulin),rat pancreas; time +1 minute,4550 ± 703
same,Insulinotropic activity (perfusate insulin),rat pancreas; time +2 minutes,3330 ± 637
same,Insulinotropic activity (perfusate insulin),rat pancreas; time +3 minutes,2500 ± 564
same,Insulinotropic activity (perfusate insulin),"rat pancreas; time −1 minute (before peptide), 5 minute perfusion",985 ± 275
same,"Potency as secretagogue, 7-37 form versus 7-36-amide",rat pancreas; perfused rat pancreas,equally potent secretagogues
same,cAMP formation,"RIN 1046-38 cells [1]; IBMX 100 uM, peptide 10^−7 M",358 ± 32 fmoles/10 ul of cell extract
same,cAMP formation,"RIN 1046-38 cells [1]; IBMX 100 uM, peptide 10^−9 M",225 ± 16 fmoles/10 ul of cell extract
same,cAMP formation,"RIN 1046-38 cells [1]; IBMX 100 uM, peptide 10^−11 M, 10 minutes, control 161 ± 10",141 ± 5 fmoles/10 ul of cell extract
same,cAMP formation,"RIN 1046-38 cells [1]; IBMX 500 uM, peptide 10^−7 M",1676 ± 113 fmoles/10 ul of cell extract
same,cAMP formation,"RIN 1046-38 cells [1]; IBMX 500 uM, peptide 10^−9 M",1199 ± 41 fmoles/10 ul of cell extract
same,cAMP formation,"RIN 1046-38 cells [1]; IBMX 500 uM, peptide 10^−11 M, control 540 ± 22",446 ± 38 fmoles/10 ul of cell extract
HAEGTFTSDVSSYLEGQAAKEFIAWLVKGRG [glucagon-like peptide-1 (7-37)],"cAMP level in RIN-38 cells, 10 min, peptide at 10^-6 M (no peptide: 140)",cellular receptors,400
same,"cAMP level in RIN-38 cells, 10 min, peptide at 10^-7 M (no peptide: 140)",cellular receptors,370
same,"cAMP level in RIN-38 cells, 10 min, peptide at 10^-8 M (no peptide: 140)",cellular receptors,494
same,"cAMP level in RIN-38 cells, 10 min, peptide at 10^-9 M (no peptide: 140)",cellular receptors,515
same,"cAMP level in RIN-38 cells, 10 min, peptide at 10^-10 M (no peptide: 140)",cellular receptors,253
same,"cAMP level in RIN-38 cells, 10 min, peptide at 10^-11 M (no peptide: 140)",cellular receptors,533
HDEFERHAEGTFTSDVSSYLEGQAAKEFIAWLVKGRG [glucagon-like peptide-1 (1-37)],"cAMP level in RIN-38 cells, 10 min, peptide at 10^-6 M (no peptide: 91)",cellular receptors,170
same,"cAMP level in RIN-38 cells, 10 min, peptide at 10^-7 M (no peptide: 91)",cellular receptors,120
same,"cAMP level in RIN-38 cells, 10 min, peptide at 10^-8 M (no peptide: 91)",cellular receptors,160
same,"cAMP level in RIN-38 cells, 10 min, peptide at 10^-9 M (no peptide: 91)",cellular receptors,100
same,"cAMP level in RIN-38 cells, 10 min, peptide at 10^-10 M (no peptide: 91)",cellular receptors,90
same,"cAMP level in RIN-38 cells, 10 min, peptide at 10^-11 M (no peptide: 91)",cellular receptors,90
